In EP4623911A1, “PI4KB INHIBITORS FOR THE TREATMENT OF FATTY LIVER DISEASE” (ETH Zurich, priority 2024, dated 2025):

Tested on: ATGL
Experiment: ATGL protein quantification via immunoblot in HEK293T cell type
Assay type: cell-based, human
Conditions: Golgi Ptdlns4P depleted by UCB9608, then glucose deprivation
Description: HEK293T and HEK293-AAV cell types were cultured in DMEM (high glucose) with 10% FBS and 1% Pen/Strep. HEK293-AAV cell type was used for imaging whereas HEK293T cells were adopted for the rest of the work. To overexpress EGFP-P4M, EGFP-SACM1L, EGFP-SACM1LK2A, ATGL-FLAG, ATGL-HA, ATGLK0-HA and FBXW8-FLAG in the HEK cells, Lipofectamine 2000 was used to deliver these plasmids for 24 h expression at 60-80% cell confluence according to the manufacturer's instructions, followed by specific treatments based on experimental designs. To image LDs abundance, HEK293-AAV cell type was induced by 200 µM oleic acid (OA, 01008 from Sigma) conjugated to bovine serum albumin (BSA, A6003 from Sigma) to generate LDs for 24 h prior to 4% PFA fixation. Afterwards, cells were stained by BODIPY 493/503 and Hoechst 33342 for LDs and nuclei labelling, respectively. In other conditions, HEK cells were not treated with OA containing medium. […]
Adipose depots, liver pieces, differentiated iBAs, HepG2, HEK293T and HEK293-AAV cell types were homogenized in RIPA buffer (50 mM Tris-HCl pH 7.4, 150 mM NaCl, 2 mM EDTA, 1.0% Triton X100, 0.5% sodium deoxycholate) with protease inhibitors (Complete, Roche) and phosphatase inhibitors (Halt phosphatase inhibitor cocktail, ThermoFisher). […] The concentration of WCE was determined by DC Protein Assay (Bio-Rad). […]

Structure (SMILES): COc1ccc(NC(=O)N2CCN(c3nc(N)nc4c3cnn4C)[C@@H](C)C2)c(C)c1 [UCB9608]
- ATGL response to glucose deprivation: loss of ATGL regulation
